Assay results taken from the supplement of paper PMC11061612.

Columns and labels:
SN-38 = compound: CCc1c2c(nc3ccc(O)cc13)-c1cc3c(c(=O)n1C2)COC(=O)[C@]3(O)CC [SN-38]; conditions: max 0.3 µM
Summary of the method: (§1)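 Viability was measured with CellTiter-Glo 2.0 luminescence after 72 hours of dosing at a final DMSO of typically 0.2%, and scaled between blank-well and DMSO-well means. Beforehand, cancer cell lines sat 24 hours at 37°C and 5% CO2 in 1536-well plates in 7.5 μl DMEM/F12 or RPMI with 10% FBS. A non-linear mixed effects model fitted two-parameter logistic curves to the dose responses. The single-agent IC50 comes from these fits.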

Savolitinib = compound: C[C@@H](c1ccc2nccn2c1)n1nnc2ncc(-c3cnn(C)c3)nc21 [Savolitinib]; conditions: max 1 µM
Summary of the method: as §1

AZD1390 = compound: CC(C)n1c(=O)n(C)c2cnc3cc(F)c(-c4ccc(OCCCN5CCCCC5)nc4)cc3c21 [AZD1390]; conditions: max 0.3 µM
Summary of the method: as §1

AZD8186 = compound: C[C@@H](Nc1cc(F)cc(F)c1)c1cc(C(=O)N(C)C)cc2c(=O)cc(N3CCOCC3)oc12 [AZD8186]
Summary of the method: as §1

Olaparib = compound: O=C(c1cc(Cc2n[nH]c(=O)c3ccccc23)ccc1F)N1CCN(C(=O)C2CC2)CC1 [Olaparib]; conditions: max 10 µM
Summary of the method: as §1

AZD5153 = compound: COc1nnc2ccc(N3CCC(c4ccc(OCCN5CCN(C)C(=O)[C@H]5C)cc4)CC3)nn12 [AZD5153]; conditions: max 1 µM
Summary of the method: as §1

Lapatinib = compound: CS(=O)(=O)CCNCc1ccc(-c2ccc3ncnc(Nc4ccc(OCc5cccc(F)c5)c(Cl)c4)c3c2)o1 [Lapatinib]; conditions: max 10 µM
Summary of the method: as §1

Taselisib = compound: Cc1nc(-c2cn3c(n2)-c2ccc(-c4cnn(C(C)(C)C(N)=O)c4)cc2OCC3)n(C(C)C)n1 [Taselisib]; conditions: max 10 µM
Summary of the method: as §1

Crizotinib = compound: C[C@@H](Oc1cc(-c2cnn(C3CCNCC3)c2)cnc1N)c1c(Cl)ccc(F)c1Cl [Crizotinib]; conditions: max 10 µM
Summary of the method: as §1

Trametinib = compound: CC(=O)Nc1cccc(-n2c(=O)n(C3CC3)c(=O)c3c(Nc4ccc(I)cc4F)n(C)c(=O)c(C)c32)c1 [Trametinib]; conditions: max 1 µM
Summary of the method: as §1

Alisertib = compound: COc1cc(Nc2ncc3c(n2)-c2ccc(Cl)cc2C(c2c(F)cccc2OC)=NC3)ccc1C(=O)O [Alisertib]; conditions: max 10 µM
Summary of the method: as §1

Gefitinib = compound: COc1cc2ncnc(Nc3ccc(F)c(Cl)c3)c2cc1OCCCN1CCOCC1 [Gefitinib]; conditions: max 10 µM
Summary of the method: as §1

AZD4320 = compound: CN(CC[C@H](CSC1=CC=CC=C1)NC2=C(C=C(C=C2)S(=O)(=O)NC(=O)C3=CC=C(C=C3)N4CCC(CC4)[C@H](C5=CC=CC=C5C6=CC=C(C=C6)Cl)O)S(=O)(=O)C(F)(F)F)CCO [AZD4320]; conditions: max 1 µM
Summary of the method: as §1

AZD0156 = compound: CN(C)CCCOc1ccc(-c2ccc3ncc4c(c3c2)n(C2CCOCC2)c(=O)n4C)cn1 [AZD0156]; conditions: max 3 µM
Summary of the method: as §1

Capivasertib = compound: C1CN(CCC1(C(=O)N[C@@H](CCO)C2=CC=C(C=C2)Cl)N)C3=NC=NC4=C3C=CN4 [Capivasertib]; conditions: max 10 µM
Summary of the method: as §1

AZD7648 = compound: Cc1cc2ncnn2cc1Nc1ncc2c(n1)n(C1CCOCC1)c(=O)n2C [AZD7648]; conditions: max 10 µM
Summary of the method: as §1

AZD5991 = compound: Cc1c2c(nn1C)CSCc1cc(n(C)n1)CSc1cc(c3ccccc3c1)OCCCc1c(C(=O)O)n(C)c3c-2c(Cl)ccc13 [AZD5991]; conditions: max 1 µM
Summary of the method: as §1

AZD2811 = compound: CCN(CCO)CCCOc1ccc2c(Nc3cc(CC(=O)Nc4cccc(F)c4)[nH]n3)ncnc2c1 [AZD2811]; conditions: max 1 µM
Summary of the method: as §1

Prexasertib = compound: COc1cccc(OCCCN)c1-c1cc(Nc2cnc(C#N)cn2)n[nH]1 [Prexasertib]; conditions: max 1 µM
Summary of the method: as §1

AZD6738 = compound: C[C@@H]1COCCN1C2=NC(=NC(=C2)C3(CC3)[S@](=N)(=O)C)C4=C5C=CNC5=NC=C4 [AZD6738]; conditions: max 10 µM
Summary of the method: as §1

Venetoclax = compound: CC1(C)CCC(CN2CCN(c3ccc(C(=O)NS(=O)(=O)c4ccc(NCC5CCOCC5)c([N+](=O)[O-])c4)c(Oc4cnc5[nH]ccc5c4)c3)CC2)=C(c2ccc(Cl)cc2)C1 [Venetoclax]; conditions: max 1 µM
Summary of the method: as §1

Dasatinib = compound: CC1=C(C(=CC=C1)Cl)NC(=O)C2=CN=C(S2)NC3=CC(=NC(=N3)C)N4CCN(CC4)CCO [Dasatinib]; conditions: max 2 µM
Summary of the method: as §1

Palbociclib = compound: CC(=O)c1c(C)c2cnc(Nc3ccc(N4CCNCC4)cn3)nc2n(C2CCCC2)c1=O [Palbociclib]; conditions: max 10 µM
Summary of the method: as §1

SG3199 = compound: CC1=CN2[C@@H](C1)C=NC3=CC(=C(C=C3C2=O)OC)OCCCCCOC4=C(C=C5C(=C4)N=C[C@@H]6CC(=CN6C5=O)C)OC [SG3199]; conditions: max 0.001 µM
Summary of the method: as §1

Doxorubicin = compound: COc1cccc2c1C(=O)c1c(O)c3c(c(O)c1C2=O)C[C@@](O)(C(=O)CO)C[C@@H]3O[C@H]1C[C@H](N)[C@H](O)[C@H](C)O1 [Doxorubicin]; conditions: max 1 µM
Summary of the method: as §1

Selumetinib = compound: Cn1cnc2c(F)c(Nc3ccc(Br)cc3Cl)c(C(=O)NOCCO)cc21 [Selumetinib]; conditions: max 10 µM
Summary of the method: as §1

AZD1775 = compound: C=CCn1c(=O)c2cnc(Nc3ccc(N4CCN(C)CC4)cc3)nc2n1-c1cccc(C(C)(C)O)n1 [AZD1775]; conditions: max 3 µM
Summary of the method: as §1

AZD5363 = compound: C1CN(CCC1(C(=O)N[C@@H](CCO)C2=CC=C(C=C2)Cl)N)C3=NC=NC4=C3C=CN4 [AZD5363]; conditions: max 10 µM
Summary of the method: as §1

5-Fluorouracil = compound: O=c1[nH]cc(F)c(=O)[nH]1 [5-Fluorouracil]; conditions: max 20 µM
Summary of the method: as §1

Paclitaxel = compound: CC(=O)O[C@H]1C(=O)[C@@]2(C)[C@H]([C@H](OC(=O)c3ccccc3)[C@]3(O)C[C@H](OC(=O)[C@H](O)[C@@H](NC(=O)c4ccccc4)c4ccccc4)C(C)=C1C3(C)C)[C@]1(OC(C)=O)CO[C@@H]1C[C@@H]2O [Paclitaxel]; conditions: max 3 µM
Summary of the method: as §1

Etoposide = compound: COc1cc([C@@H]2c3cc4c(cc3[C@@H](O[C@@H]3O[C@@H]5CO[C@@H](C)O[C@H]5[C@H](O)[C@H]3O)[C@H]3COC(=O)[C@H]23)OCO4)cc(OC)c1O [Etoposide]; conditions: max 10 µM
Summary of the method: as §1

Carboplatin = compound: C1CC(C1)(C(=O)[O-])C(=O)[O-].N.N.[Pt+2] [Carboplatin]; conditions: max 10 µM
Summary of the method: as §1

[1] = compound: O=C(Nc1ccc2[nH]nc(-c3ccncc3)c2c1)[C@@H]1CCN(CC(=O)N2CCN(c3ccc(-c4ncccn4)cc3)CC2)C1; conditions: max 5 µM
Summary of the method: as §1

MK-2206 = compound: NC1(c2ccc(-c3nc4ccn5c(=O)[nH]nc5c4cc3-c3ccccc3)cc2)CCC1 [MK-2206]; conditions: max 10 µM
Summary of the method: as §1

Gemcitabine = compound: Nc1ccn([C@@H]2O[C@H](CO)[C@@H](O)C2(F)F)c(=O)n1 [Gemcitabine]; conditions: max 0.3 µM
Summary of the method: as §1

SRA737 = compound: N#Cc1cnc(Nc2cc(NC[C@H]3CNCCO3)c(C(F)(F)F)cn2)cn1 [SRA737]; conditions: max 10 µM
Summary of the method: as §1

Row | Cell Line | IC50, cell viability 72 h (SN-38) [µM] | IC50, cell viability 72 h (Savolitinib) [µM] | IC50, cell viability 72 h (AZD1390) [µM] | IC50, cell viability 72 h (AZD8186; max 3 µM) [µM] | IC50, cell viability 72 h (Olaparib) [µM] | IC50, cell viability 72 h (AZD5153) [µM] | IC50, cell viability 72 h (Lapatinib) [µM] | IC50, cell viability 72 h (Taselisib) [µM] | IC50, cell viability 72 h (Crizotinib) [µM] | IC50, cell viability 72 h (Trametinib) [µM] | IC50, cell viability 72 h (Alisertib) [µM] | IC50, cell viability 72 h (Gefitinib) [µM] | IC50, cell viability 72 h (AZD4320) [µM] | IC50, cell viability 72 h (AZD0156) [µM] | IC50, cell viability 72 h (Capivasertib) [µM] | IC50, cell viability 72 h (AZD7648) [µM] | IC50, cell viability 72 h (AZD5991) [µM] | IC50, cell viability 72 h (AZD2811) [µM] | IC50, cell viability 72 h (Prexasertib) [µM] | IC50, cell viability 72 h (AZD6738) [µM] | IC50, cell viability 72 h (Venetoclax) [µM] | IC50, cell viability 72 h (Dasatinib) [µM] | IC50, cell viability 72 h (Palbociclib) [µM] | IC50, cell viability 72 h (SG3199) [µM] | IC50, cell viability 72 h (Doxorubicin) [µM] | IC50, cell viability 72 h (Selumetinib) [µM] | IC50, cell viability 72 h (AZD1775) [µM] | IC50, cell viability 72 h (AZD5363) [µM] | IC50, cell viability 72 h (5-Fluorouracil) [µM] | IC50, cell viability 72 h (AZD8186; max 10 µM) [µM] | IC50, cell viability 72 h (Paclitaxel) [µM] | IC50, cell viability 72 h (Etoposide) [µM] | IC50, cell viability 72 h (Carboplatin) [µM] | IC50, cell viability 72 h [1] [µM] | IC50, cell viability 72 h (MK-2206) [µM] | IC50, cell viability 72 h (Gemcitabine) [µM] | IC50, cell viability 72 h (SRA737) [µM]
1 | FADU (Head and Neck Carcinoma) | 0.0063 | > 1 | > 0.3 | > 3 | > 10 | > 1 | 3.16 | 3.32 | > 10 | > 1 | > 10 | 9.02 | > 1 | > 3 | > 10 | > 10 | 0.407 | > 1 | 0.0791 | > 10 | > 1 | > 2 | > 10 | > 0.001 | 0.312 | > 10 | > 3 |  |  |  |  |  |  |  |  |  | 
2 | REH (B-Lymphoblastic Leukemia) | 0.00421 | > 1 | > 0.3 |  | > 10 | 0.834 | > 10 | 3.31 | 4.21 | > 1 | 1.62 | > 10 | 0.0564 | > 3 |  | > 10 | 0.723 | 0.218 | 0.0248 | 5.79 | 0.211 | > 2 | 6.85 | > 0.001 | 0.0949 | > 10 | 0.727 | > 10 | > 20 | 9.64 | 0.00544 | 0.834 | > 10 | > 5 | 4.58 | 0.0156 | > 10
3 | IST-MES1 (Mesothelioma) | 0.0614 | > 1 | > 0.3 |  | > 10 | 0.246 | > 10 | > 10 | > 10 | > 1 | > 10 | > 10 | > 1 | > 3 |  | > 10 | > 1 | > 1 | > 1 | > 10 | > 1 | 0.243 | > 10 | > 0.001 | 0.43 | > 10 | > 3 | > 10 | > 20 | > 10 | 0.504 | > 10 | > 10 | > 5 | > 10 | 0.181 | > 10
4 | PANC-03-27 (Pancreatic Carcinoma) | 0.0498 | > 1 | > 0.3 |  | > 10 | > 1 | > 10 | 4.6 | > 10 | 0.271 | > 10 | > 10 | > 1 | > 3 |  | > 10 | > 1 | > 1 | 0.00787 | 2.57 | > 1 | 1.76 | > 10 | > 0.001 | > 1 | > 10 | 0.184 | > 10 | > 20 | > 10 | 0.214 | > 10 | > 10 | 3.08 | > 10 | 0.183 | 3.4
